Assay results: patent US12698507B2, “Methods and compositions for conferring and/or enhancing herbicide tolerance using protoporphyrinogen IX oxidase of various cyanobacteria or variant thereof” (FarmHannong Co., Ltd., priority 2019, dated 2026)
Like-named read-outs stand apart in the source and are kept apart here.

Columns and labels:
[1] = biological target: T1, Thermosynechococcus elongatus PKUAC-SCTE542 protoporphyrinogen IX oxidase CyPPO19, wild type, SEQ ID NO: 1 (MBP fusion) (Thermosynechococcus sichuanensis, UniProt A0A7D6JSC1); experiment: PPO enzyme inhibition assay (IC50 for herbicides), CyPPO19 wild type fused to MBP; format: biochemical
T1 sequence (A0A7D6JSC1 1-467): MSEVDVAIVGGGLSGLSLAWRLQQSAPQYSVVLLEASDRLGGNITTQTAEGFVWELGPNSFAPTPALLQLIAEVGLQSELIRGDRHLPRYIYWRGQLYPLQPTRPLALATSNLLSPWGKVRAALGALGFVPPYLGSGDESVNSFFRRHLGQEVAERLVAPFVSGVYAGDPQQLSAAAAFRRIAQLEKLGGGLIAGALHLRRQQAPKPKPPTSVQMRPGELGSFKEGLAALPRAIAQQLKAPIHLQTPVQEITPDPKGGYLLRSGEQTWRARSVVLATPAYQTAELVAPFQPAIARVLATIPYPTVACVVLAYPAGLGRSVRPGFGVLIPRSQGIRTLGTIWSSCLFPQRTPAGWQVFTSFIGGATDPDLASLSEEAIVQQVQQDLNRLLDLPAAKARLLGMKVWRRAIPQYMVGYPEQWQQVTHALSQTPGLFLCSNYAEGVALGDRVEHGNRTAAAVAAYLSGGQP

[2] = system: PPO-deficient BT3 E. coli (ΔPPO) transformed with CyPPO19 variant R89A+F360V (Thermosynechococcus elongatus PKUAC-SCTE542, SEQ ID NO: 1); experiment: Herbicide tolerance test in E. coli, CyPPO19 R89A+F360V; format: cell-based; details: LB agar, 0 to 2,000 μM herbicide, 37° C., 16-20 hours
From the text: (§1) To enhance the PPO-inhibiting herbicide resistance of CyPPO19 and CyPPO18, PPO variant genes of the above example 2 were constructed. They were transformed to BT3 (ΔPPO) strain which is deficient of PPO activity and cultured in LB media with PPO-inhibiting herbicide, thereby examining whether growth of transformed BT3 was not inhibited.
(§2) BT3 competent cells were transformed with the pET303-CyPPO19 (wild type), pET303-CyPPO18 (wild type) plasmids, and those with a mutation(s) constructed (refer to example 2) via heat shock method, and were cultured in LB agar media containing ampicillin.
(§3) Single colony transformed with each CyPPO gene was cultured in 3 mL of LB broth (LPSS) containing ampicillin for more than 12 hours, and then was subcultured in LB broth until absorbance (OD600) reached 0.5 to 1. Then, it was diluted with LB broth to OD600=0.5. Again, the diluted solution was serially diluted 4 times by a factor of one tenth. […]
(§4) Then, 10 μL of each diluted solution of E. coli was dropped on the plate and cultured at 37° C. under dark for 16-20 hours. PPO-inhibiting herbicide resistance was evaluated with the extent of E. coli growth containing each gene was observed.
(§5) The extent of herbicide resistance was evaluated by the relative growth of variants to that of wild type, and listed in Tables 9 and 10 and FIGS. 3 to 32. […]

[3] = system: PPO-deficient BT3 E. coli (ΔPPO) transformed with CyPPO19 variant V165C+F360M (Thermosynechococcus elongatus PKUAC-SCTE542, SEQ ID NO: 1); experiment: Herbicide tolerance test in E. coli, CyPPO19 V165C+F360M; format: cell-based; details: LB agar, 0 to 2,000 μM herbicide, 37° C., 16-20 hours
From the text: as §1, §2, §3, §4, §5

[4] = system: PPO-deficient BT3 E. coli (ΔPPO) transformed with CyPPO18 variant R89A+V165C+F360I (Thermosynechococcus vulcanus NIES-2134, SEQ ID NO: 3); experiment: Herbicide tolerance test in E. coli, CyPPO18 R89A+V165C+F360I; format: cell-based; parameters: key to the marks not given beside the values; details: LB agar, 0 to 2,000 μM herbicide, 37° C., 16-20 hours
From the text: as §1, §2, §3, §4, §5

[5] = system: PPO-deficient BT3 E. coli (ΔPPO) transformed with CyPPO18 variant V165C+A167L+F360I (Thermosynechococcus vulcanus NIES-2134, SEQ ID NO: 3); experiment: Herbicide tolerance test in E. coli, CyPPO18 V165C+A167L+F360I; format: cell-based; parameters: key to the marks not given beside the values; details: LB agar, 0 to 2,000 μM herbicide, 37° C., 16-20 hours
From the text: as §1, §2, §3, §4, §5

[6] = system: PPO-deficient BT3 E. coli (ΔPPO) transformed with CyPPO18 variant V165S+A167L+V305M+F360I (Thermosynechococcus vulcanus NIES-2134, SEQ ID NO: 3); experiment: Herbicide tolerance test in E. coli, CyPPO18 V165S+A167L+V305M+F360I; format: cell-based; parameters: key to the marks not given beside the values; details: LB agar, 0 to 2,000 μM herbicide, 37° C., 16-20 hours
From the text: as §1, §2, §3, §4, §5

[7] = biological target: Thermosynechococcus elongatus PKUAC-SCTE542 protoporphyrinogen IX oxidase CyPPO19 (SEQ ID NO: 1) variant A167L (MBP fusion) (Thermosynechococcus sichuanensis, UniProt A0A7D6JSC1, A167L); experiment: biochemical; details: 50 μM protoporphyrinogen IX, pH 7.5, room temperature, 30 min, 10,000 means equivalent to or higher
Sequence of Thermosynechococcus elongatus PKUAC-SCTE542 protoporphyrinogen IX oxidase CyPPO19 (SEQ ID NO: 1) variant A167L (MBP fusion) (A0A7D6JSC1 entry or part of it A167L): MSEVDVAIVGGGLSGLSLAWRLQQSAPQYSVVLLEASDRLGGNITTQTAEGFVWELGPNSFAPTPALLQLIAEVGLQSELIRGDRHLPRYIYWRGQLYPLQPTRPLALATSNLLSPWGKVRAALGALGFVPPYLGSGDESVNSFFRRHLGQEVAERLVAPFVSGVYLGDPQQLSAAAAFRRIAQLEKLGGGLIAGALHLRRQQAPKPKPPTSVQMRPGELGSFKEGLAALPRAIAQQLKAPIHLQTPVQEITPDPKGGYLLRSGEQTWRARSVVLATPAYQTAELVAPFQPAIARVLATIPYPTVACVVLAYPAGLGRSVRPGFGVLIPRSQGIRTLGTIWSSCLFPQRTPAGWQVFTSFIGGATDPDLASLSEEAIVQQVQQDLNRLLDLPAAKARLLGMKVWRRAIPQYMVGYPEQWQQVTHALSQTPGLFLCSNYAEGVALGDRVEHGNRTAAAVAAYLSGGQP

[8] = biological target: Thermosynechococcus elongatus PKUAC-SCTE542 protoporphyrinogen IX oxidase CyPPO19 (SEQ ID NO: 1) variant V305M (MBP fusion) (Thermosynechococcus sichuanensis, UniProt A0A7D6JSC1, V305M); experiment: PPO enzyme inhibition assay (IC50 for herbicides), CyPPO19 V305M fused to MBP; format: biochemical
Sequence of Thermosynechococcus elongatus PKUAC-SCTE542 protoporphyrinogen IX oxidase CyPPO19 (SEQ ID NO: 1) variant V305M (MBP fusion) (A0A7D6JSC1 entry or part of it V305M): as the sequence (A0A7D6JSC1 entry or part of it A167L) above, with L167A, V305M counted along it

[9] = biological target: Thermosynechococcus elongatus PKUAC-SCTE542 protoporphyrinogen IX oxidase CyPPO19 (SEQ ID NO: 1) variant V305L (MBP fusion) (Thermosynechococcus sichuanensis, UniProt A0A7D6JSC1, V305L); experiment: PPO enzyme inhibition assay (IC50 for herbicides), CyPPO19 V305L fused to MBP; format: biochemical
Sequence of Thermosynechococcus elongatus PKUAC-SCTE542 protoporphyrinogen IX oxidase CyPPO19 (SEQ ID NO: 1) variant V305L (MBP fusion) (A0A7D6JSC1 entry or part of it V305L): as the sequence (A0A7D6JSC1 entry or part of it A167L) above, with L167A, V305L counted along it

[10] = biological target: Thermosynechococcus vulcanus NIES-2134 protoporphyrinogen IX oxidase CyPPO18 (SEQ ID NO: 3) variant A167L (MBP fusion) (Thermosynechococcus vestitus, UniProt Q8DLV2, A167L); experiment: PPO enzyme inhibition assay (IC50 for herbicides), CyPPO18 A167L fused to MBP; format: biochemical; details: 50 μM protoporphyrinogen IX, pH 7.5, room temperature, 30 min
Sequence of Thermosynechococcus vulcanus NIES-2134 protoporphyrinogen IX oxidase CyPPO18 (SEQ ID NO: 3) variant A167L (MBP fusion) (Q8DLV2 entry or part of it A167L): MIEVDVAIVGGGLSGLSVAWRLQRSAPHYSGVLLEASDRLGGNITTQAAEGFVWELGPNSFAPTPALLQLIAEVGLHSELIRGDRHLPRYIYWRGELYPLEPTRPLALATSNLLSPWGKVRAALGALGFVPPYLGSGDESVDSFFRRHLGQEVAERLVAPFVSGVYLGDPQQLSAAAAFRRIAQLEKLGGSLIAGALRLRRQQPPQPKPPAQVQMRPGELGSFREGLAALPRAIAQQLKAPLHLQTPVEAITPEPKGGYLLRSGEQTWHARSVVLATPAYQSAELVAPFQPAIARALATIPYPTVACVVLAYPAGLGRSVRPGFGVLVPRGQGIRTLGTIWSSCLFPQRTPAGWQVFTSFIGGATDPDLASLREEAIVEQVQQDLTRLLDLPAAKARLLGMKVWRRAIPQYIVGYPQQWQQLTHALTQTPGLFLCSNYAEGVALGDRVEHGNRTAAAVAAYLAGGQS

[11] = biological target: Thermosynechococcus vulcanus NIES-2134 protoporphyrinogen IX oxidase CyPPO18 (SEQ ID NO: 3) variant A167I (MBP fusion) (Thermosynechococcus vestitus, UniProt Q8DLV2, A167I); experiment: PPO enzyme inhibition assay (IC50 for herbicides), CyPPO18 A167I fused to MBP; format: biochemical; details: 50 μM protoporphyrinogen IX, pH 7.5, room temperature, 30 min
Sequence of Thermosynechococcus vulcanus NIES-2134 protoporphyrinogen IX oxidase CyPPO18 (SEQ ID NO: 3) variant A167I (MBP fusion) (Q8DLV2 entry or part of it A167I): as the sequence (Q8DLV2 entry or part of it A167L) above, with L167I counted along it

[12] = biological target: Thermosynechococcus vulcanus NIES-2134 protoporphyrinogen IX oxidase CyPPO18 (SEQ ID NO: 3) variant V305M (MBP fusion) (Thermosynechococcus vestitus, UniProt Q8DLV2, V305M); experiment: PPO enzyme inhibition assay (IC50 for herbicides), CyPPO18 V305M fused to MBP; format: biochemical; details: 50 μM protoporphyrinogen IX, pH 7.5, room temperature, 30 min
Sequence of Thermosynechococcus vulcanus NIES-2134 protoporphyrinogen IX oxidase CyPPO18 (SEQ ID NO: 3) variant V305M (MBP fusion) (Q8DLV2 entry or part of it V305M): as the sequence (Q8DLV2 entry or part of it A167L) above, with L167A, V305M counted along it

Structure (SMILES)	IC50 [1]	tolerance level (relative growth of variant to wild type) [2]	tolerance level (relative growth of variant to wild type) [3]	tolerance level (relative growth of variant to wild type) [4]	tolerance level (relative growth of variant to wild type) [5]	tolerance level (relative growth of variant to wild type) [6]	IC50 ([7]; read-out: IC50)	IC50 [8]	IC50 [9]	IC50 [10]	IC50 [11]	IC50 [12]	IC50 ([1]; CyPPO19 WT, 50 μM protoporphyrinogen IX, pH 7.5, room temperature, 30 min)	IC50 [7]	IC50 ([8]; CyPPO19 V305M, 50 μM protoporphyrinogen IX, pH 7.5, room temperature, 30 min)	IC50 ([9]; CyPPO19 V305L, 50 μM protoporphyrinogen IX, pH 7.5, room temperature, 30 min)
CCOc1cc(Oc2ccc(C(F)(F)F)cc2Cl)ccc1[N+](=O)[O-] [Oxyfluorfen]	0.57 µM	+	++	++	++	++	5.26 µM	0.732 µM	0.793 µM	2.81 µM	2 µM	0.355 µM				
Cc1nn(-c2cc(CC(Cl)C(=O)O)c(Cl)cc2F)c(=O)n1C(F)F (stereo not drawn) [Carfentrazone]		+	+	++	++	++				4.01 µM	2.6 µM	1.61 µM	0.763 µM	≥ 10 µM	0.91 µM	1.33 µM
